According to patent US20020119891A1, “Integrated methods for control of aquatic weeds” (priority 2001, published 2002):
Where “and” joins values, the source holds several entries; their conditions need not be identical. Identical values can stand only once.

Assays:
hydrilla [1] = experiment: Pretreatment aquatic weed bioassay: apical tips grown in fluridone-treated medium, pigments of new growth assayed; type: in vivo, Hydrilla verticillata
Text: (§1) As disclosed above, fluridone treatments of the invention are integrated with assays to determine the efficacy of fluridone on the local plant population in the body of water under treatment, and desirably also with assays to determine the concentration of fluridone existing during the treatment program. For example, in the present invention, an aquatic weed bioassay can be used to determine the pre-treatment susceptibility of a target plant population to fluridone. Such an assay may for instance involve the collection of meristematic stem tissue or vegetative propagules at selected sites within a body of water to be treated. The sites of collection may be logged, for instance using coordinates defined by the global positioning satellite (GPS) system. […]
(§2) At the completion of the growth period, all new growth from the plants can be excised from the original plant tissue. […] After the extraction, the extracted sample is assayed to quantitate the levels of pigments, for example chlorophyll and/or β-carotene. […] For example, spectrophotometric absorbance measurements for chlorophyll may be taken at 645 and/or 662 nm; for β-carotene may be taken at 445 nm; and for phytoene may be taken at 287 and/or 347 nm. These measured values may be compared to control data (e.g. including curves generated using samples of known concentration) to determine the level of these substances in the samples. […]

hydrilla [2] = experiment: Field treatment of a water body with plant biochemical and water residue monitoring; type: in vivo, Hydrilla verticillata
Text: (§3) Preferred methods of the present invention also involve plant biochemical testing conducted during the treatment. Thus, during the period in which a fluridone level is being maintained in the body of water under treatment, aquatic weed samples are obtained from the water body. This may involve, for example, collection of growing apical meristems from selected sites in the water body, preferably along with matched water samples from the same sites. Again, the sample sites can be logged using GPS or another suitable system to assist in future sampling and reference.
(§4) The aquatic weed plant samples can then be assessed to determine the effect of the maintained level of fluridone on the plants. To this end, the samples are first thoroughly washed and weighed. In a typical treatment, 6 to 12 samples per site will be collected. Similar to the discussions above, standard methods are then used to assay the level of pigments such as B-carotene, chlorophyll, and/or other relevant substances such as phytoene, in the tissue. […] The levels can be measured as discussed above using any suitable method such as spectrophotometry or fluorometry and appropriate standard curves. The measured values can then be utilized to determine whether any additional applications of fluridone or other adjustments are necessary to bring concentrations to levels that will be phytotoxic to the local aquatic weed population.
The biochemical assays discussed above, taken during treatment, are preferably used in conjunction with assays of water samples simultaneously taken, to determine the concentration of fluridone in the water body. […] The combination of measured fluridone concentration along with measured effect on plant health provides a particularly powerful method for the management of aquatic weeds in water bodies.
The Spring Creek Arm of Lake Seminole (5000 acres) was treated in May 2000 using a drip system that added fluridone based on flow rates in the river. […] Plant response to the treatment was monitored and threshold water concentrations were determined. […]

aquatic weeds = conditions: cited from earlier work
Eurasian watermilfoil [3] = experiment: Field treatment of a lake with fluridone; type: in vivo
Text: as §3
as §4, with “population. […]” for “population.”

Eurasian watermilfoil [4] = experiment: Pretreatment aquatic weed bioassay: sampled plants exposed to fluridone, pigments assayed; type: in vivo
Text: as §1, §2

For “1-methyl-3phenyl-5-3-(trifluoromethyl)phenyl-4(1H)-pyridinone [fluridone]”, the “threshold concentration of fluridone (pigment concentrations in new growth)” value (hydrilla [1]; Example 1: hydrilla from 2500-acre Florida lake, 0, 3, 6, 12, 24 ppb, 12-day growth, no enhancement at 12 and 24 ppb) was 6 ppb, the “lowest rate hydrilla is susceptible to (pretreatment assay)” value (hydrilla [1]; Spring Creek Arm of Lake Seminole hydrilla) was 5 ppb and the “weed control result of earlier treatment” value (hydrilla [2]; Lake Eva, 1999 treatment) was “very poor control”. The “lake concentration relative to control threshold (pigment assay)” value (hydrilla [2]; Lake Eva, Central Florida, treated April 2000, target rate 15 ppb) was “below thresholds required to provide control”, the “plant response at downstream sites (plant sampling)” value (hydrilla [2]; Spring Creek Arm of Lake Seminole, drip system treatment, May 2000) was “lack of impact at several downstream sites” and the “susceptible concentration, less sensitive species” value (aquatic weeds; other species, only higher concentrations) was 150 ppb. For the same substance, the “susceptible concentration, more sensitive species” value (aquatic weeds; some species, as low as) was “about 5 ppb”, the “weed control result of field treatment” value (Eurasian watermilfoil [3]; Lake McKinney, Minnesota, treated late summer 1999, assessed end of following summer) was “could no longer be found in the lake” and the “weed control result of previous field applications” value (Eurasian watermilfoil [3]; Wolverine Lake, two applications at 5 and 6 ppb in the last 3 years) was “unsatisfactory results”. The “threshold concentration of fluridone” value (Eurasian watermilfoil [4]; Example 3: Eurasian watermilfoil from Wolverine Lake, Michigan, 0, 3, 6, 9, 12, 15 ppb) was 6 ppb and 9 ppb and the “plant response below threshold” value (Eurasian watermilfoil [4]; Wolverine Lake Eurasian watermilfoil, 3 ppb) was “rapid recovery of the plants”.
